Two molecules from patent US7897568B2, “Compositions for treatment of cancer” (priority 2006, dated 2011) can be followed below.

In experiment [1] the target is T1, GST-SNCG (Homo sapiens, UniProt O76070).
T1 construct: The SNCG coding region was amplified from the human cDNA clone; made in house; host or cells: Escherichia coli BL21 (DE3)
Nature of the experiment: Surface plasmon resonance, immobilized ANK peptide with GST-SNCG analyte. It is filed as binding. The following applies: global fit, two-phase reaction (conformation change) model, 25° C. The protocol: Kinetics of the SNCG-ANK interaction were determined. […] Sensograms were deconvoluted globally, using a simultaneous fit for both association (ka, M^−1s^−1) and dissociation (kd, s^−1).
The binding interaction between the ANK peptide and GST-SNCG was examined in real time using a BIACORE 3000 biosensor system (Biacore Inc., NJ). Because of the relatively large amount required in this experiment, GST-SNCG, which expresses at least 2 times better than SNCG, was used. […] The changes in the refractive index at the sensor chip surface with respect to time are scaled in resonance units (RU). For proteins, every 1000 RU corresponds to a surface mass change of ˜1 ng/mm^2. All experiments were performed at 25° C. using research grade carboxymethylated dextran matrix (CM5) sensor chips (Biacore Inc.). […] Prior to all analyses the GST-SNCG and ANK peptide preparations were dialyzed against the running buffer to minimize bulk effects. […]
In all cases the analyte binding measurements were performed using running buffer 2 (running buffer 1 plus 0.1% P20 surfactant). […] Data was analyzed using BIAevaluation 3.1 software (Biacore Inc.). The data was analyzed globally, using a simultaneous fit for both association (ka, M^−1s^−1) and dissociation (kd, s^−1). The KD (M) value was calculated as kd/ka.
In general terms: Surface plasmon resonance follows binding to a sensor surface in real time, without labels.

Experiment [2] deals with T1, GST-SNCG. Nature of the experiment: GST pull-down of EGFP-ANK with GST-SNCG. The experiment is classed as binding. Conditions: FIG. 5D, GST as control. An excerpt:
FIGS. 5A through 5D show co-localization, co-immunoprecipitation (co-IP) and GST pull down experiments, using an enhance green fluorescent protein (EGFP)-ANK fusion protein, which confirm that SNCG associates with the ANK peptide in vivo. FIG. 5A is a western blot depicting detection of EGFP-ANK expression in COS7 cells. Lanes 2 and 3 were samples transfected with different clones, cl-4 and cl-8, respectively, of pEGFP-ANK plasmid. In FIG. 5B, MCF7-SNCG cells were transfected with pEGFP-ANK, fixed on a cover slip, permeabilized and probed with anti-SNCG and anti-GFP antibodies to observe co-localization. Fluorescent cells were visualized using an ×100 objective (oil) on an inverted confocal microscope (Leica). FIGS. 5C and 5D are western blots showing association of SNCG and ANK peptide as evidenced by co-IP of SNCG with EGFP-ANK in MCF7-SNCG and MCF7-neo cells. In these experiments, MCF7-SNCG and MCF7-neo cells were transfected with pEGFP-ANK or pEGFP plasmids. […]
GST-SNCG (20 μg) protein or GST alone was added to a pre-equilibrated slurry of glutathione-sepharose 4B and incubated for 60 minutes. […] After extensive washes, the beads were collected, boiled in sample buffer, separated on 12% SDS gel and analyzed by western blotting. […]

Where a SMILES comes first, the peptide text is derived from it. Where no end group is shown, it is not given here.

T1 sequence (O76070 whole entry): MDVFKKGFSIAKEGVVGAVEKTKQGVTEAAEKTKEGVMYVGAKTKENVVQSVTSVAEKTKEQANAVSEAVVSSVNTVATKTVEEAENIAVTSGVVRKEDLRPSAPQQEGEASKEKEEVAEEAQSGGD

On GST-SNCG [1], `CC[C@H](C)[C@H](NC(=O)[C@H](CS)NC(=O)CNC(=O)[C@H](CC(C)C)NC(=O)[C@H](Cc1c[nH]cn1)NC(=O)CNC(=O)[C@H](Cc1c[nH]cn1)NC(=O)[C@H](CCC(N)=O)NC(=O)[C@H](CO)NC(=O)[C@H](C)NC(=O)[C@@H](NC(=O)[C@H](Cc1c[nH]cn1)NC(=O)[C@H](CC(C)C)NC(=O)[C@H](C)NC(=O)[C@H](CO)NC(=O)[C@H](CC(N)=O)NC(=O)CNC(=O)[C@H](CCCCN)NC(C)=O)C(C)C)C(=O)N[C@@H](CCC(N)=O)C(=O)N[C@H](C(=O)N[C@@H](CC(C)C)C(=O)N[C@H](C(=O)N[C@@H](CCCNC(=N)N)C(=O)N[C@@H](Cc1ccc(O)cc1)C(=O)NCC(=O)N[C@@H](C)C(=O)N[C@@H](CC(N)=O)C(=O)N[C@H](C(=O)N[C@H](C(=O)N[C@@H](CCSC)C(=O)N[C@@H](CCC(N)=O)C(=O)N[C@@H](CC(N)=O)C(=O)N[C@@H](Cc1c[nH]cn1)C(=O)NCC(N)=O)[C@@H](C)O)C(C)C)C(C)C)[C@@H](C)O` [ANK peptide] (Ac-KGNSALHVASQHGHLGCIQTLVRYGANVTMQNHG-NH2) registered a kd1 of 0.014 s⁻¹ and a kd2 of 0.000802 s⁻¹.
Take “EGFP-ANK: ANK peptide expressed as a fusion protein with its amino-terminal linked to EGFP protein, approximately 37 kDa ({EGFP}-KGNSALHVASQHGHLGCIQTLVRYGANVTMQNHG)”: in the experiment with GST-SNCG [2], the “pull down by GST-SNCG” value is recorded as “SNCG is capable of immunoprecipitating EGFP-ANK”.
